Experimental data from article PMC9499324, “Glycyrrhizic Acid Derivatives Bearing Amino Acid Residues in the Carbohydrate Part as Dengue Virus E Protein Inhibitors: Synthesis and Antiviral Activity” (International Journal of Molecular Sciences, 2022).
Read-outs that look alike come from different tables or passages of the source.

Key:
DENV1 = DENV1 infectivity inhibition assay in Vero E6 cells; assay type: cell-based; settings: Dengue virus, DENV1, Vero C1008, read-out: IC50 in the DENV1 infectivity inhibition assay
Experimental: (§1) In the antiviral screening assay, each tested GL conjugate at 10 μM was used to survey the anti-DENV activity in Vero E6 cells using cytopathic effect (CPE) and infectivity reduction assays as described in our prior report. In CPE and infectivity reduction assays, Vero E6 cells were infected by DENV2 at an MOI of 0.005 and simultaneously treated 10 μM of indicated GL conjugate for 96 h, and then photographed by microscope for examining the levels of DENV2-induced CPE in infected cells treated with or without GL conjugate. Meanwhile, the cells were further performed using immunofluorescence assay (IFA) with anti-DENV NS4B antibodies (GeneTex, Inc., Hsinchu, Taiwan) and anti-rabbit IgG antibodies conjugated with AF555 (ThermoFisher, Waltham, MA, USA) plus DAPI (4′,6-diamidino-2-phenylindole) nuclear staining. Finally, the DENV-2 infectivity was measured according to the ratio of DENV NS4B-positive cells to DAPI-stained cells in the well of mock-treated or treated cells, as described in [45, 59, 60].
Supplemental Figure S25. Infectivity inhbition of DENV1 in Vero E6 cells by active GL conjugates. Cells were infected with DENV1 in the presence and absence of Compounds 3, 6, 11, and 21 at the concentrations of 0.1, 1, and 10 μM, respectively. Treated/infected Vero E6 cells were also analyzed using immunofluorescence staining with anti-DENV2 NS4B antibodies.
Residual infectivity was discovered by the ratio of DENV2 NS4B positive cells to total cells stained with DAPI, and relative inhibition activity was determined based on full infectivity with the subtraction of its residual infectivity.
(1 picture or pasted object on this page, not shown here)

DENV2 CprME/JEV SRIPs = test: E protein-mediated attachment assay with chimeric DENV2 CprME/JEV SRIPs on Vero E6 cells; assay type: cell-based, Dengue virus type 2; settings: Dengue virus, DENV2, Vero C1008, 1 h, read-out: IC50 of E-mediated attachment against DENV2 CprME/JEV SRIPs
Experimental: Figure 6 Attachment inhibition of chimeric DENV2 CprM-E/JEV and wild-type JEV SRIPs by active GL conjugates. Vero E6 cells were pre-cooled and incubated with freshly prepared mixtures of DENV2 CprM-E/JEV or wild-type JEV SRIPs, with active GL derivatives 3 (A), 6 (B), 11 (C), and 21 (D) at 4 °C for 1 h, respectively. After the removal of the mixtures, the cells were kept at 37 °C for 18 h and then an immunofluorescent assay with anti-JEV NS5 antibodies plus DAPI staining was performed. Finally, the inhibition percentage of SRIP attachment infectivity was measured as follows: 1-(percentage of JEV NS5 positivity in treated cells/percentage of JEV NS5 positivity in mock-treated cells). * p < 0.05; *** p < 0.001 compared with untreated, infected cells.
DNA-launched cytomegaloviruses (CMV) promoter-driven JEV and ZIKV replicons had been constructed, as described in our prior reports. […] After the removal of the mixture (the compound and SRIP), the cells were incubated at 37 °C for 18 h, and then were analyzed by immunofluorescent assay with anti-JEV NS3 and anti-ZIKV NS5 antibodies, respectively, plus DAPI staining for determining the residual infectivity of wild-type and chimeric SRIPs, as described above.

DENV1 and DENV2 = test: DENV infectivity inhibition, summary over DENV1 and DENV2 in Vero E6 and A549 cells; assay type: cell-based, Dengue virus; settings: read-out: IC50 in DENV infectivity (range over assays)
Excerpt: as §1, with “In the antiviral screening assay, each tested GL conjugate at 10 μM was used to survey the anti-DENV activity in Vero E6 cells using cytopathic effect (CPE) and infectivity reduction assays as described in our prior report.” left out, “[…],” for “Vero E6 cells were infected by DENV2 at an MOI of 0.005 and simultaneously treated 10 μM of indicated GL conjugate for 96 h,”

[1] = Dengue virus, range over DENV1 and DENV2, Vero E6 and A549 cells

Structure (SMILES)	IC50 (DENV1) [µM]	IC50 (DENV2 CprME/JEV SRIPs) [µM]	IC50 (DENV1 and DENV2; [1]) [µM]	IC50 (DENV1 and DENV2) [µM]
CCOC(=O)[C@H](Cc1ccccc1)NC(=O)[C@H]1O[C@@H](O[C@H]2[C@H](OC3CC[C@@]4(C)C(CC[C@]5(C)C4C(=O)C=C4C6C[C@@](C)(C(=O)O)CC[C@]6(C)CC[C@]45C)C3(C)C)O[C@H](C(=O)N[C@@H](Cc3ccccc3)C(=O)OCC)[C@@H](O)[C@@H]2O)[C@H](O)[C@@H](O)[C@@H]1O (stereo partly drawn) [Compound 11, 3-O-{2-O-[N-(β-D-Glucopyranosyluronoyl)-L-phenylalanineethyl ester]-N-(β-D-Glucopyranosyluronoyl)-L-phenylalanineethyl ester}-(3β, 20β)-11-oxo-30-noroleane-12-ene-30-oic Acid]	1.25 ± 0.167	2.82	0.1 to 5.98	0.18 to 1.56
COC(=O)[C@H](NC(=O)[C@H]1O[C@@H](O[C@H]2[C@H](OC3CC[C@@]4(C)C(CC[C@]5(C)C4C(=O)C=C4C6C[C@@](C)(C(=O)O)CC[C@]6(C)CC[C@]45C)C3(C)C)O[C@H](C(=O)N[C@@H](C(=O)OC)C(C)C)[C@@H](O)[C@@H]2O)[C@H](O)[C@@H](O)[C@@H]1O)C(C)C (stereo partly drawn) [Compound 3, 3-O-{2-O-[N-(β-D-Glucopyranosyluronoyl)-D-valinemethyl ester]-N-(β-D-glucopyranosyluronoyl)-D-valinemethyl ester}-(3β, 20β)-11-oxo-30-noroleane-12-ene-30-oic Acid]	2.81 ± 0.54	6.69	0.1 to 5.98	0.12 to 2.81
